Reference: a melting point compilation (Tetko et al.; mined from patent text by program, amines drawn as free bases though some values may be those of a salt)

SMILES | melting point [°C]
CC(=O)Oc1ccc(-c2cnc(N(S(C)(=O)=O)S(C)(=O)=O)c(Cc3ccccc3)n2)cc1 | 166 to 167
COCCOc1ccc(/C=C/COC(=O)NS(=O)(=O)N2CCCC2)c(Oc2ncc(C(F)(F)F)cc2Cl)c1 | 123 to 124
Nc1nc2[nH]c3ccccc3c2c(=O)[nH]1 | > 340
N#Cc1c(-c2ccc(Cl)c(Cl)c2)cc(C2CC2)nc1Cl | 158 to 160
c1ccc(C(CCCc2c[nH]cn2)c2ccccc2)cc1 | 204 to 206
O=c1[nH]c2c(OC3CNC3)cccc2n1Cc1ccccc1 | 181 to 184
CCCc1ccc(Cc2c(C(F)(F)F)[nH][nH]c2=O)cc1 | 114 to 116
OCc1cn(Cc2ccccc2)c(-c2ccc(OCc3ccccc3)cc2)n1 | 129 to 131
COc1ccccc1N1CCN(CCn2c(O)nc3sc4c(c3c2=O)CCN(C(C)=O)C4)CC1 | 135 to 137
O=Cc1cc(Cl)cc2c1OCCC2 | 83 to 86
CN(Cc1ccccc1C(F)(F)F)C1CCN(c2ccc(OC[C@@]3(C)Cn4cc([N+](=O)[O-])nc4O3)cc2)CC1 | 190
N#CC(SSC(C#N)c1c[nH]c2ccccc12)c1c[nH]c2ccccc12 (configuration not stated) | 169 to 170
Cc1ccccc1-c1c(NC(=O)Nc2c(C)cccc2C(C)C)c(=O)n(C)c2ccc(Cl)cc12 | 195 to 196
C[C@@]1(F)[C@H](OC(=O)c2ccccc2)[C@@H](COC(=O)c2ccccc2)O[C@@H]1Br | 59 to 61
Cc1nccc(N2CCC(O)(C(=O)N3CCN(C(=O)c4ccc(Br)cc4)CC3)CC2)n1 | 114 to 117
Cc1nc(-c2cccnc2)sc1-c1ccnc(Nc2ccc(N3CCCC3)cc2)n1 | 212 to 214
CC(Sc1nc(SCc2ccccc2)n[nH]1)C(=O)O (configuration not stated) | 123 to 124
Fc1ccc(Cc2ccc(NC3=NCCN3)cc2)cc1 | 110 to 112
CC(Oc1ncn(-c2ccccc2Cl)n1)C(=O)O (configuration not stated) | 104 to 106
O=c1c(Br)c(SCc2ccccc2)ccn1Cc1ccccc1 | 181 to 182
C#CCOc1ncc(F)cc1OC | 67 to 69
CC12CCC(=O)C=C1CC(O)C1C2CCC2(C)C(O)CCC12 (configuration not stated) | 191 to 193
N#Cc1c(-c2ccc(Cl)cc2)c(-c2ccc(Cl)cc2)n[nH]c1=O | 271 to 272
Cc1cc(C)c(C2C(=O)N3CCCCN3C2=O)c(C)c1 | 247 to 248

SMILES | melting point [°C]
COc1cc(N2CCC(N3CCOCC3)CC2)ccc1Nc1ncc2ccc(-c3ccccc3S(C)(=O)=O)n2n1 | 111 to 112
Cc1cc2c(cc1C)=NC(=O)N=2 | > 360
NC(=O)N(O)Cc1ccc(OCCc2noc(-c3ccccc3)n2)cc1 | 135 to 136
CCn1c(CC#N)ccc1C(=O)c1ccc(Cl)cc1 | 145 to 147
Cc1ccccc1C(=O)Nc1ccc(C(=O)N2Cc3cc(Cl)ccc3Oc3ccccc32)cc1 | 207 to 208
COCOc1cc(Cl)ccc1-c1cc(-c2cccc(C(=O)OC)c2)c(C#N)c(N)n1 | 159 to 160
Cc1cc(C)c(N2CCCCC2=O)cc1NS(=O)(=O)C(F)(F)F | 260 to 266
CC(C)Oc1cc2c(cc1O)C(=O)CC(C)(C)O2 | 138 to 139
CN1C(=O)[C@H](NC(=O)CCc2ccc(Cl)cc2)N=C(c2ccccc2)c2ccccc21 | 203 to 205
C=CCOc1ccc(C(=O)N[C@@H](C)c2cccc3ccccc23)cc1 | 141 to 143
CC1CN(C)c2c3c(nc4cccc(c24)O1)CCCC3 (configuration not stated) | 125 to 126
COC(=O)CC(Cc1ccccc1)C(=O)N[C@@H](Cc1ccccc1)C(=O)O (some centres not stated) | 100 to 104
Cc1oc(-c2ccccc2)nc1COc1ccc(C(=O)c2ccccc2OCC(=O)O)cc1 | 174 to 175
CC(C)c1ccc2c(c1)C(=O)c1ccc(C(=O)O)cc1CC2 | 178 to 182
N#CCOc1ccc(CCNC(=O)OCc2ccccc2)cc1 | 110 to 115
CCCN1CCC(C2=C(C#N)C(c3cccc4nonc34)c3c[nH]nc3N2)CC1 (configuration not stated) | 246
c1cncc(-c2ccc(N3CCCN(c4ccc(-c5cccnc5)cn4)CC3)nc2)c1 | 210 to 211
COc1cc(OC)nc(SC)n1 | 50 to 52
Cc1ccccc1OCC(O)CN1CCC(N2CCCNC2=O)CC1 (configuration not stated) | 145 to 147
CCC(O)CN1N=C(c2ccccc2)CC(O)C1=O (configuration not stated) | 92 to 94
Nc1cccc2c3c([nH]c12)C(=O)CCC3 | 233 to 234
Cc1oc(-c2ccccc2)nc1COc1cccc(COc2cc(CCC(=O)O)n(-c3ccccc3)n2)c1 | 137 to 138
O=C1NC(=O)c2c1c(-c1ccccc1Cl)cc1c2c2cc(O)ccc2n1CCS(=O)(=O)c1ncn[nH]1 | 301 to 304
CS(=O)(=O)Nc1cc(Cl)c(C#N)cc1Sc1ccc(F)cc1F | 159 to 162

SMILES | melting point [°C]
CC(=O)NNc1ccc(N=Cc2ccccc2)cc1 | 172 to 174
CS(=O)(=O)Nc1cccc(Nc2nc(NCc3cccc(C#N)c3)c3nc[nH]c3n2)c1 | 128 to 131
COc1cc(/C=C/c2ccc(F)cc2)cc(OC)c1 | 46 to 48
CCCn1nc2c(N)nc3c(c2c1CCCc1cc(-c2ccccc2)no1)CCCC3 | 154 to 155
O=C(NCC1CC1)C(c1ccccc1)c1ccccc1 | 130
CC(=O)OC1CSC(Oc2cccc(-c3cnoc3C)c2)C(OC(C)=O)C1OC(C)=O (configuration not stated) | 60
Nc1cc(C(F)(F)F)c(-c2cc(Br)c(N)cc2C(F)(F)F)cc1Br | 154 to 157
COc1cccc2c1nc(C(F)F)n2-c1nc(N2CCOCC2)c2ncn(-c3cccnc3)c2n1 | 229 to 231
COc1ccc2c(c1OC)CCC(C#N)C2C#N (configuration not stated) | 107 to 108
O=C(O)c1cnn2c(C(F)(F)F)cc(-c3cccc(C(F)(F)F)c3)nc12 | 212
CSc1ccc(C2=C(c3ccccc3)C(=O)OC23CCCC3)cc1 | 147 to 148
C[Si](C)(C)C#Cc1ccc(Br)cc1 | 62
CC(C)c1cccc(C(C)C)c1NC(=O)CNC(c1ccccc1)c1cccc(CO)c1 (configuration not stated) | 57 to 62
CC(Cl)c1nc2cccnc2[nH]1 (configuration not stated) | 132
CC(/C=C/c1c(C)sc(C)c1C)=C(F)\C=C\C(C)=C\C(N)=O | 212 to 215
O=C(Oc1ccccc1Br)c1cc(-c2ccccc2)cn1CCc1ccccc1Br | 90 to 92
CC(C)(C)C(=O)C(Br)Oc1ccc(S(=O)(=O)c2ccccc2)cc1 (configuration not stated) | 157 to 162
Nc1nc(=O)n(C2C=CC(CO)O2)cc1F (configuration not stated) | 206
CS(=O)(=O)c1ccc(-c2cc(CBr)nn2-c2ccc(Cl)cc2)cc1 | 60 to 64
O=C1C=C(Br)C(CBr)(NCc2ccccc2)O1 (configuration not stated) | 137 to 139
C=CCCCCCCCCC(=O)OC1CCC2C3CCC4=CC(=O)CCC4C3CCC12CC (configuration not stated) | 87 to 88
CONC(=O)Nc1ccc(-c2sc3c(c2CN(C)C(C)c2ccccn2)c(=O)n(-c2ccccc2)c(=O)n3Cc2c(F)cccc2F)cc1 (configuration not stated) | 146 to 148

Further lines, results first:

melting point [°C] | SMILES
189 to 193 | CS(=O)(=O)c1cccc(Cc2cc3cccc(-c4cccc(C(=O)NCC(N)=O)c4)c3s2)c1
144 to 146 | CCCCc1c(/C=C/C(=O)Oc2ccc([N+](=O)[O-])cc2)cc(OC)c2ccc(OC)cc12
133 to 134 | Cc1ccccc1Oc1ccccc1C(=O)O
128 to 131 | CNC(=O)C(=NO)c1ccccc1CO
134 to 136 | COc1cc(-c2ccc([N+](=O)[O-])cn2)cc(OC)c1OC
120 to 122 | COC(=O)c1nc2c(c(SC)nn2-c2ccccc2)c(N)c1C(=O)OC
262 to 263 | CCOC(=O)CCn1c(=O)c(=O)[nH]c2cc(C(F)(F)F)c(N)cc21
165 to 167 | O=C(NO)C(=O)c1ccc(OCCOc2ccc3ccccc3c2)s1
175 to 176 | CNC(=O)c1ccnc(NC(=O)N2CCC3(CCc4cc(F)ccc4O3)CC2)c1
129 to 131 | CCOC(=O)C(=O)Nc1c([N+](=O)[O-])sc2ccc(F)cc12
94 to 95 | CCCOc1ccc(CO)cc1N
193 | CN(c1cccc2cc(-c3nccs3)[nH]c12)S(=O)(=O)c1ccsc1CSCC(=O)O
120 to 122 | COC(=O)C1=C(C#N)NC(C)=C(C(=O)OC(C)C)C1c1cccc([N+](=O)[O-])c1 (configuration not stated)
143 to 144 | CCOC(=O)c1sc(SC)c2c1CCc1sc(C)nc1-2
143 to 144 | O=C(Nc1ccc([N+](=O)[O-])cc1)N(O)C1CCCCCCC1
264 to 266 | O=c1[nH]c(-c2ccccc2)ncc1[N+](=O)[O-]

melting point [°C] | SMILES
115 to 116 | Cc1ccnc(C(=O)c2sc(Cl)nc2C)c1
224 to 227 | NS(=O)(=O)c1cccc(NC(=O)Nc2c(F)c(F)c(F)c(F)c2F)c1
178 to 179 | O=C(NC(=O)c1c(F)cccc1F)Nc1cc(Cl)c(OC(F)(F)C(F)(F)F)cc1Cl
119 to 120 | CSc1nccc(-c2cc(C)ccc2NC(=O)C(C)(C)C)n1
307 to 308 | O=C(O)c1cn(C2CC2)c2cc(Cl)ccc2c1=O
> 250 | Cc1c(O)cc(N2C(=O)c3ccccc3C2=O)cc1C(=O)O
83.5 to 85.5 | C=C(CC)C(=O)c1ccc(OCC(=O)O)c(Cl)c1
147 to 149 | COc1cc(C(=O)c2c(F)cccc2F)ccc1O
296 to 300 | CC(C)CCc1sc(NC(=O)c2cc([N+](=O)[O-])cn2C)nc1C(=O)O
86 to 88 | CCN(CC)C(=O)n1cc(C(F)F)c(S(=O)(=O)c2cccc(Cl)c2)n1
184 to 189 | CN(C)C(=O)CCc1ccc(NC(=O)Nc2ccc(Cl)c(C(F)(F)F)c2)c(-c2nnn[nH]2)c1
66 to 69 | CC(O)(c1nc2cc([N+](=O)[O-])ccc2s1)C(F)(F)F (configuration not stated)
130 to 133 | COC(=O)c1cccc2nnsc12
149 | Cc1ccc(Cn2[nH]c(N)cc2=O)cc1
143 to 145 | Cn1ccnc1Sc1ccc(Cl)cc1[N+](=O)[O-]
178 to 180 | CCn1cc(Cl)nc(S(=O)(=O)CC(=O)Nc2ccccc2)c1=O
